According to ChEMBL document CHEMBL3792358, “Computer-aided identification of new histone deacetylase 6 selective inhibitor with anti-sepsis activity” (Eur J Med Chem, 2016):
Calls of active or inactive are those of the source. No cut-off for these calls is given here.

Key:
Histone deacetylase = type: cell-based, Homo sapiens; details: hela
[1] = target: Histone deacetylase (Homo sapiens) (UniProt Q13547+O15379+Q9UBN7+Q92769+Q9UQL6+Q8WUI4+Q9BY41+Q96DB2+P56524+Q9UKV0+Q969S8); assay: Competitive inhibition of HDAC in human HeLa cells using Boc-acetyl-lysine-AMC as substrate at 25 to 50 uM incubated for 30 mins in dark by Lineweaver-Burk plot analysis; type: cell-based

Row | IC50 (Histone deacetylase) [µM] | inhibition [1] | Structure (SMILES)
1 | 19.18 | Active | O=C(CCS/C=C/c1ccccc1)NCCSCc1ccco1
2 | 3.7 | – | O=C(CCS/C=C/c1ccccc1)NO
